Tested on: γ-secretase
Test: Western blot of nectin-1 C-terminal fragments in hippocampal neurons overexpressing flag tagged nectin-1, treated with γ-secretase inhibitor
Format: cell-based, rat
Conditions: 0.5 and 1 μM inhibitor, 24 hrs, transduced hippocampal neurons at 21 DIV
Experimental: Hippocampal neurons were plated at a density of 1.3×10^5 cells. The neurons at 21 DIV were transduced with an adenovirus vector expressing a C-terminal flag tagged nectin-1 for 24 hrs at a MOI of 50. Neurons were treated without (FIG. 3, lanes 1 and 2) or with 0.5 μM (FIG. 3, lanes 3 and 4) and 1 μM γ-secretase inhibitor X (FIG. 3, lanes 5 and 6) for 24 hrs. These cells were harvested in reducing sample buffer and analyzed on a 10% SDS-PAGE gel.
Technical difficulties preclude detection of endogenous C-terminal fragments, particularly the 35 and 24 kDa forms due to low expression levels in neurons. To circumvent this, C-terminal Flag tagged nectin-1 was over expressed in neurons as described above.

CC(C)C[C@H](NC(=O)[C@H](Cc1ccccc1)C[C@@H](O)[C@H](Cc1ccccc1)NC(=O)OC(C)(C)C)C(=O)N[C@@H](Cc1ccccc1)C(N)=O [γ-secretase inhibitor X]
density of the 24 kDa nectin-1 band: reduced | density of the 37, 34 and 30 kDa nectin-1 bands: increased

Reference: US20100285597A1, “DETECTION OF FRAGMENTS OF NECTIN-1 FOR THE DIAGNOSIS OF ALZHEIMER'S DISEASE” (UNIVERSITY OF ROCHESTER, priority 2007, published 2010)
